This passage reports % of control and % of inhibition results from ChEMBL document CHEMBL5465560, “Selectivity Literature for EUbOPEN Chemogenomic Library” (2024).

The target in experiment [1] is Receptor tyrosine-protein kinase erbB-2 (Homo sapiens, UniProt P04626). As to the kind of experiment: Selectivity interaction (Kinase panel (Z-LYTE Assay)) EUB0001632a ERBB2. Conditions: at 10 µM.
Experiment [2] has as its target Tyrosine-protein kinase JAK2 (Homo sapiens, UniProt O60674). In words: (§1) Selectivity interaction (Kinase panel (Z-LYTE Assay)) EUB0001632a JAK2. Particulars: at 10 µM.
Experiment [3] concerns Tyrosine-protein kinase JAK2 (Homo sapiens), O60674 [V617F]. The description is as §1. Conditions: at 10 µM.
Chain of Tyrosine-protein kinase JAK2 (Homo sapiens), O60674 [V617F] (O60674 whole entry V617F): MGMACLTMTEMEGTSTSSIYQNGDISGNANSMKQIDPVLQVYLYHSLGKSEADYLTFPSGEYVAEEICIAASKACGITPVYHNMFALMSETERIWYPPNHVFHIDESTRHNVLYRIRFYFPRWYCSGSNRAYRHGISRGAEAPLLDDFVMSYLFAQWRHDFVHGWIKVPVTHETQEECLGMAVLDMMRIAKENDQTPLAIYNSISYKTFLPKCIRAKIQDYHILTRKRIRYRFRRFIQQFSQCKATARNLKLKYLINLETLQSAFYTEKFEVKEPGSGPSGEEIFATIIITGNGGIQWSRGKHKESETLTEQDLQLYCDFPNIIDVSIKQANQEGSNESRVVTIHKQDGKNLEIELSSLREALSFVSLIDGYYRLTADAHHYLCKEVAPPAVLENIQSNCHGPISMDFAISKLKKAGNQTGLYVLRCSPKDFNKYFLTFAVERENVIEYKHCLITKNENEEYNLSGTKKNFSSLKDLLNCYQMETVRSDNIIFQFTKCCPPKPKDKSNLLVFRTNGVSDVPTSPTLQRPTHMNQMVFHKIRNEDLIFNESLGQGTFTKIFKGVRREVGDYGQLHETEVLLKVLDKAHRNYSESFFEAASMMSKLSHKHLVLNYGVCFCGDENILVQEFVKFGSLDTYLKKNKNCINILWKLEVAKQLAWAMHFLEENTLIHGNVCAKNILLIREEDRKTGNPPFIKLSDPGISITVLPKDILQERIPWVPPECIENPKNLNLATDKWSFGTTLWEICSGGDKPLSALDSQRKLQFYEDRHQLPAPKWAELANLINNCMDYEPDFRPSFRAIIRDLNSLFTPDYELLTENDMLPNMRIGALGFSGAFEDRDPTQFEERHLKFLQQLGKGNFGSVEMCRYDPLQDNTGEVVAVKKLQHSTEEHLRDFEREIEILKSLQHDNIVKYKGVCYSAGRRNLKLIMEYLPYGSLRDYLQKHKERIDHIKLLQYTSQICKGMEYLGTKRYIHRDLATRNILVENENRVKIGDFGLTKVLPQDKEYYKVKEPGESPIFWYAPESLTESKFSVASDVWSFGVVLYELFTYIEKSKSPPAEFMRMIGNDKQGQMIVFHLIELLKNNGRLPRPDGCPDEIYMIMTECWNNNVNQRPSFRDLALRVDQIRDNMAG
The target in experiment [4] is Serine/threonine-protein kinase N1 (Homo sapiens, UniProt Q16512). As to the kind of experiment: Selectivity interaction (Ambit KINOMEscan and KiNATiv profiling in Jurkat cells) EUB0000090b PKN1. It is filed as cell-based. Particulars: at 1 µM.
Chain of Serine/threonine-protein kinase N1 (Q16512 2-942 limits assumed): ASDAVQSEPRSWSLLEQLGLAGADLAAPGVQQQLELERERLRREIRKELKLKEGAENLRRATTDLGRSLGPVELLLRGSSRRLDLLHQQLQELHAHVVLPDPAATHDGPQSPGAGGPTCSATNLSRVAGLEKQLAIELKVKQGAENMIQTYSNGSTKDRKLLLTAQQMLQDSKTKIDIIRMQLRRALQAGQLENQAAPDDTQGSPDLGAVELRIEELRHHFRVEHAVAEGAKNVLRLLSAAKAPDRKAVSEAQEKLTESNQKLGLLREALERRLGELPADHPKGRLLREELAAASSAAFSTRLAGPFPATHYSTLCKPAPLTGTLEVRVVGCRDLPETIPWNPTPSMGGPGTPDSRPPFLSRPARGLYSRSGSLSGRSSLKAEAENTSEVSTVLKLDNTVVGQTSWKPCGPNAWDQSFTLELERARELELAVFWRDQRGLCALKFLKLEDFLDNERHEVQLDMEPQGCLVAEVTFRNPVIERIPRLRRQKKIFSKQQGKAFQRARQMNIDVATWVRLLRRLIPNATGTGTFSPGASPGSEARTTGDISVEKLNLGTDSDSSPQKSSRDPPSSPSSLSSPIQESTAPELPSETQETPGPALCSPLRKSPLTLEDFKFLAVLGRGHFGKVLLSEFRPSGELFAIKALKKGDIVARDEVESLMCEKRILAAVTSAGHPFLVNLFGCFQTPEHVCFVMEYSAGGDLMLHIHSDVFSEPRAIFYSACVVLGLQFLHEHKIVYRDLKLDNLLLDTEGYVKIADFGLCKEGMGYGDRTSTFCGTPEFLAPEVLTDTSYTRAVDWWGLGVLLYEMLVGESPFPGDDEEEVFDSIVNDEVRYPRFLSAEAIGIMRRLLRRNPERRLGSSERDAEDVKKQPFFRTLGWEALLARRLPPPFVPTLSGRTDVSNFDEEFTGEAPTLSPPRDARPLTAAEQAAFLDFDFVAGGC
Experiment [5] concerns the target 5'-AMP-activated protein kinase catalytic subunit alpha-2 (Homo sapiens) (UniProt P54646). In words: Selectivity interaction (KinomeScan (DiscoverX)) EUB0000666a PRKAA2. Particulars: at 10 µM.
Experiment [6] deals with T1, Ephrin type-B receptor 6 (Homo sapiens) (UniProt O15197).
T1 sequence (whole entry): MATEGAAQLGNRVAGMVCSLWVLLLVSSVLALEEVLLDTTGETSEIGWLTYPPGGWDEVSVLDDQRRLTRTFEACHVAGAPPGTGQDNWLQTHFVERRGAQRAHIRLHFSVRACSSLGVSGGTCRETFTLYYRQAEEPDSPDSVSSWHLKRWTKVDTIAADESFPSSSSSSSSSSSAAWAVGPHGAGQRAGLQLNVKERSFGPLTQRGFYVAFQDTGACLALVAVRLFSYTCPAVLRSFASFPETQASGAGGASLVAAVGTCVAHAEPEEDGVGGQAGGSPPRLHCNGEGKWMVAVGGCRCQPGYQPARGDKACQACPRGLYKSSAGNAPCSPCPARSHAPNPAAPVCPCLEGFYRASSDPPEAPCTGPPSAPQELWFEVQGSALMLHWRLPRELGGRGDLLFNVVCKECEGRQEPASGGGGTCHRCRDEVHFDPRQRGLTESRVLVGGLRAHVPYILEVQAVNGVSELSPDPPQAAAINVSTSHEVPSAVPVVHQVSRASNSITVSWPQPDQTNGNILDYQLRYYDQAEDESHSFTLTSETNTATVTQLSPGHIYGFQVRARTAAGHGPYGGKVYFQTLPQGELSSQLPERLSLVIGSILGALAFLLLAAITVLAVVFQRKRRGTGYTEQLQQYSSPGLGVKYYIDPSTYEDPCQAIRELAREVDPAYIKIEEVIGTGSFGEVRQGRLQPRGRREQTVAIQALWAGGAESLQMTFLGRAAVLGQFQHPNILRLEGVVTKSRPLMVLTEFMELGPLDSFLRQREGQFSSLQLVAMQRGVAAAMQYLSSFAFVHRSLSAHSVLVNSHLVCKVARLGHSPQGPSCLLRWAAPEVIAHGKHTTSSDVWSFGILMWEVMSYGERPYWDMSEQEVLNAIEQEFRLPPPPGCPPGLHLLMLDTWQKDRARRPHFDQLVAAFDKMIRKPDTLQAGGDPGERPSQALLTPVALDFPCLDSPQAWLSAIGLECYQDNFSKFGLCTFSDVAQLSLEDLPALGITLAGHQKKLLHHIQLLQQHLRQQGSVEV
As to the kind of experiment: Selectivity interaction (KinomeScan (DiscoverX)) EUB0000666a EPHB6. Conditions: at 10 µM.

Experiment [7] addresses Serine/threonine-protein kinase NIM1 (Homo sapiens, UniProt Q8IY84). As to the kind of experiment: Selectivity interaction (KinomeScan (DiscoverX)) EUB0000655a NIM1K. Particulars: at 10 µM.
Experiment [8] has as its target High affinity nerve growth factor receptor (Homo sapiens, UniProt P04629). In words: Selectivity interaction (Kinase panel (literature)) EUB0001199aCl NTRK1. Particulars: at 1 µM.
Experiment [9] deals with T2, Inhibitor of nuclear factor kappa-B kinase subunit epsilon (Homo sapiens) (UniProt Q14164).
T2 sequence (whole entry): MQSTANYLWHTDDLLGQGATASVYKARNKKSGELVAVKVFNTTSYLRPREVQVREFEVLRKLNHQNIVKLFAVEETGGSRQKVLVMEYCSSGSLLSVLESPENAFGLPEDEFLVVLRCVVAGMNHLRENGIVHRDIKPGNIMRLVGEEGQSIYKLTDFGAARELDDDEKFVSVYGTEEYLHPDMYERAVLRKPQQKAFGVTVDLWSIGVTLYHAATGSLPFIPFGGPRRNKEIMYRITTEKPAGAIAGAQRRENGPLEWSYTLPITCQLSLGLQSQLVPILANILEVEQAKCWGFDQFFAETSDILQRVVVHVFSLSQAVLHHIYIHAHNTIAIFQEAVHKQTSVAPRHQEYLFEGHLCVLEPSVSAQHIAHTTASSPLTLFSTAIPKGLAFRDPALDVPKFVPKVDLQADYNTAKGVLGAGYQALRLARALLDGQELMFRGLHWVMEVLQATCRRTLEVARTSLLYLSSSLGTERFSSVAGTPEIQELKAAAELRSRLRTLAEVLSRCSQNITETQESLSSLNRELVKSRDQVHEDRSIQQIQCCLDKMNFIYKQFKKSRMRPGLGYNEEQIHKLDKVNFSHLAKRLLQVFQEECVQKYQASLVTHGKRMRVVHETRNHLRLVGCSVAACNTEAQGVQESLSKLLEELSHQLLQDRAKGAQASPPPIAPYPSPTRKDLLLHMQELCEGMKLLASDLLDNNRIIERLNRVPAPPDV
As to the kind of experiment: Selectivity interaction (ActivX KiNativ screen (kinase selectivity in THP-1 cell lysates)) EUB0000639a IKBKE. The class given is subcellular. Conditions: lysate, at 0.2 µM.

Experiment [10] has as its target T3, Dual specificity mitogen-activated protein kinase kinase 6 (Homo sapiens) (UniProt P52564).
T3 sequence (whole entry): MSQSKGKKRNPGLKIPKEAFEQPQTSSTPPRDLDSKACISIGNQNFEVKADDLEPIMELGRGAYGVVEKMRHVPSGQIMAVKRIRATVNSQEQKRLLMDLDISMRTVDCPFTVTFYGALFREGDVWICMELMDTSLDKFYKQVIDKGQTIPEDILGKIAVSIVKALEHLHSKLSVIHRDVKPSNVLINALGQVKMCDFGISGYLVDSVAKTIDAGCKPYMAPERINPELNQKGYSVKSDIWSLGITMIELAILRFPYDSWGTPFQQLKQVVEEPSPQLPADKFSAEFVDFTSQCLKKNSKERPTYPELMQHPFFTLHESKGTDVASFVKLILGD
In words: Selectivity interaction (ActivX KiNativ screen (kinase selectivity in THP-1 cell lysates)) EUB0000639a MAP2K6. The class given is subcellular. Particulars: lysate.

The target of experiment [11] is Tyrosine-protein kinase CSK (Homo sapiens) (UniProt P41240). In words: Selectivity interaction (KinomeScan (DiscoverX)) EUB0001049a CSK. Particulars: at 1 µM.
Chain of Tyrosine-protein kinase CSK (Homo sapiens) (P41240 2-450 limits assumed): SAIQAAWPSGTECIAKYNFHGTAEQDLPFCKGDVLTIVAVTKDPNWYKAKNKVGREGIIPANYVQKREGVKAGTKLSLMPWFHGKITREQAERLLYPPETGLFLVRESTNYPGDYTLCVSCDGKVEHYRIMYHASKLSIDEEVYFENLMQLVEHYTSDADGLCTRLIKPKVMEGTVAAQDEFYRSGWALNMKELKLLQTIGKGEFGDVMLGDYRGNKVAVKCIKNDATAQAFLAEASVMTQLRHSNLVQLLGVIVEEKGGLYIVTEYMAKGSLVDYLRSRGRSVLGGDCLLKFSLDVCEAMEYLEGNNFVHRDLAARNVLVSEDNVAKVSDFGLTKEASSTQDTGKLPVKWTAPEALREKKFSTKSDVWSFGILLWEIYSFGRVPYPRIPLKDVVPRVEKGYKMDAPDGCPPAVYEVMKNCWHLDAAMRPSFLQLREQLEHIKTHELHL
Experiment [12] addresses Mitogen-activated protein kinase 1 (Homo sapiens, UniProt P28482). As to the kind of experiment: Selectivity interaction (ProQinase) EUB0000171b MAPK1.
Experiment [13] has as its target Insulin-like growth factor 1 receptor (Homo sapiens, UniProt P08069). As to the kind of experiment: Selectivity interaction (KinomeScan (DiscoverX)) EUB0000092b IGF1R. Particulars: at 10 µM.

Chain of Mitogen-activated protein kinase 1 (P28482 whole entry): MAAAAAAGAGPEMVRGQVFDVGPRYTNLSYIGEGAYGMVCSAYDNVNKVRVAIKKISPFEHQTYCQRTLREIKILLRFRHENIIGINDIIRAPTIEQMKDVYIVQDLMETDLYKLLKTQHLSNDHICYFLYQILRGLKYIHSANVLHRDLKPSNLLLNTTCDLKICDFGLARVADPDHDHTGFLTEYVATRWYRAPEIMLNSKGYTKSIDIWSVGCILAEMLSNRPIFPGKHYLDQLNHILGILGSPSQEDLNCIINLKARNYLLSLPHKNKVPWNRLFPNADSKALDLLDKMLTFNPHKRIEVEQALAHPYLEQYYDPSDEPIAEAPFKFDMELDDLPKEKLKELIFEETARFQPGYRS
Chain of 5'-AMP-activated protein kinase catalytic subunit alpha-2 (Homo sapiens) (P54646 whole entry, looked up): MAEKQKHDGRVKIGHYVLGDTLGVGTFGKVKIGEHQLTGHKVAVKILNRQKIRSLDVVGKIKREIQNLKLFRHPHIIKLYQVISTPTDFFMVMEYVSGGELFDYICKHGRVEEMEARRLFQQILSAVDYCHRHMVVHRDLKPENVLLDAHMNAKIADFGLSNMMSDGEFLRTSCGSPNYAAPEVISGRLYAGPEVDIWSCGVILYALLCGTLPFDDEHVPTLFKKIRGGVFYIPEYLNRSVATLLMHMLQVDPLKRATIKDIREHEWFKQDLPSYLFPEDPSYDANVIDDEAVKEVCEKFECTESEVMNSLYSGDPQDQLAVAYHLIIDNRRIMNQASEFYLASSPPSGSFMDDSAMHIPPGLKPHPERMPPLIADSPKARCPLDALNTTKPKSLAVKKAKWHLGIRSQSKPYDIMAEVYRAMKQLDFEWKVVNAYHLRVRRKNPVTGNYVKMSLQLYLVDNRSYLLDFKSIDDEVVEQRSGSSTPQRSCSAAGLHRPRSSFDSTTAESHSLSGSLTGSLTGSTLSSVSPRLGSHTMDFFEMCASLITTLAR
Chain of Insulin-like growth factor 1 receptor (P08069 31-736 limits assumed): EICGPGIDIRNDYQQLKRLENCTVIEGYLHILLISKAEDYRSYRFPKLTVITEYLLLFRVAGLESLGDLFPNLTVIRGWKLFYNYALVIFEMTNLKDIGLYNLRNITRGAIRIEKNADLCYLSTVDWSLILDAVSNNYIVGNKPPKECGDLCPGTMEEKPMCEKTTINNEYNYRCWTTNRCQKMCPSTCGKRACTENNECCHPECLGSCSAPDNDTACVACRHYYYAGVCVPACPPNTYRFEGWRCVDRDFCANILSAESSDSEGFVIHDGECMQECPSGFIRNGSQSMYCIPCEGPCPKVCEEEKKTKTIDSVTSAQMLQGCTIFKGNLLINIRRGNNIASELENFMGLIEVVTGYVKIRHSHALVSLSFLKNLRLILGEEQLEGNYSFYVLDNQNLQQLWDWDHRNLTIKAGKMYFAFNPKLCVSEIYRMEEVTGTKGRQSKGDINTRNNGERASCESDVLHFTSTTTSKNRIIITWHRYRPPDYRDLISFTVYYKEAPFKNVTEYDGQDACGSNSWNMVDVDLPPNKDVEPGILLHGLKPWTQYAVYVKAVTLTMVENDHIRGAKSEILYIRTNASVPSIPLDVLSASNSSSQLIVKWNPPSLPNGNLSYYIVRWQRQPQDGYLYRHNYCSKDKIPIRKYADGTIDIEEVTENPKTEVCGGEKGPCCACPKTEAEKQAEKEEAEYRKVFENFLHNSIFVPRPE
Chain of Insulin-like growth factor 1 receptor (P08069 741-1367 limits assumed): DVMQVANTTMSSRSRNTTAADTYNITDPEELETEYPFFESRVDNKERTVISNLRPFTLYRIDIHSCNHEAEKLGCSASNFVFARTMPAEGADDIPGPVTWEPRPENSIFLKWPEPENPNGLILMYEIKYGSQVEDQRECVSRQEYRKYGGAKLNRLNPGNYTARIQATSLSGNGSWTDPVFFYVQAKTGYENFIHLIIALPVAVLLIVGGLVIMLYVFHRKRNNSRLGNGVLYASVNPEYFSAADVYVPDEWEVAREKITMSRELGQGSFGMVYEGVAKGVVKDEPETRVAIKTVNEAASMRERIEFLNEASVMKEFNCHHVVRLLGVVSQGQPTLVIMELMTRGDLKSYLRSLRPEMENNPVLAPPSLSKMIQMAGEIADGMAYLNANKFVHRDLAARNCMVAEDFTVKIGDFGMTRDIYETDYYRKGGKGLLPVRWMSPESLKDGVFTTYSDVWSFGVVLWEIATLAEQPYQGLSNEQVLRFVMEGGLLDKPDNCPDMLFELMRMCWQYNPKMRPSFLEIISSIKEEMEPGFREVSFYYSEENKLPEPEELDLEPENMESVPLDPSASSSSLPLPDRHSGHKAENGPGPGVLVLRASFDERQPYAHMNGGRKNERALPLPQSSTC
Chain of Tyrosine-protein kinase JAK2 (O60674 whole entry): as the sequence (O60674 whole entry V617F) above, with F617V counted along it

Regarding `Cn1cc(-n2cnc3c(NCc4nc5cc(Cl)c(Cl)cc5[nH]4)nc(N4CCOCC4)nc32)cn1`, the % of control in experiment [1] is -0.819%; in [2], -3.18%; in experiment [3], -2.15%.

Take `CN(C)C/C=C/C(=O)Nc1ccc(C(=O)N2CCCC(Nc3ncc(Cl)c(-c4c[nH]c5ccccc45)n3)C2)cc1` (stereo not drawn): in experiment [4], the % of control came out at 94%.

Regarding `O=C(NOC[C@H](O)CO)c1ccc(F)c(F)c1Nc1ccc(I)cc1F`, the % of control was determined as 97% in experiment [5] and 87% in experiment [6].

Turning to `CN(C)CCOc1ccc(-c2nc(-c3ccncc3)c(-c3ccc4c(c3)CC/C4=N\O)[nH]2)cc1`, the % of control in experiment [7] stood at 91%.

Regarding `CN1Cc2nccc(-c3cn(C)nc3-c3ccc(F)cc3)c2C1=O`, the % of inhibition in [8] was 15%.

As to `CC[C@@H]1[C@H](F)C(=O)N[C@@H]1COc1nccc2cc(C(N)=O)c(OC)cc12` [ZIMLOVISERTIB], the % of inhibition in experiment [9] was -29.9%; in [10] (at 0.01 µM) it was 10.3%; in experiment [10] (at 0.04 µM), -4.9%; in [10] (at 0.2 µM) it was -20.6%; in experiment [10] (at 1 µM), 17.5%; in experiment [10] (at 5 µM), 62.3%.

Turning to `COc1cc(Nc2nc(C)cc(-c3cnn4nc(OC)ccc34)n2)cc(C(F)(F)F)c1`, in [11], the % of control stood at 59%.

Consider `C=CC(=O)Nc1cccc(C(=O)Nc2ccc(Nc3cc(-c4[nH]c(SC)nc4C)ccn3)cc2)c1`, for which the % of control turned out to be 96% in [12] (at 1 µM) and 100% in [12] (at 5 µM).

On to `CCC(=O)N1CCN(c2ccc(-n3c(=O)ccc4cnc5ccc(-c6cnc7ccccc7c6)cc5c43)cc2C(F)(F)F)CC1`, for which the % of control in experiment [13] worked out at 94%.
